# Experimental data taken from patent US10398142B2, “Polycationic amphiphiles as antimicrobial agents” (priority 2013, dated 2019).
# “And” between values parts separate entries of the source, which are not always exact repeats. Equal entries are not always repeated. Where two headings read alike, the source gives them in different places. Marks after values point to notes of the source that are not given here.
# Key:
# [1] = test system: Enterococcus faecalis (OG1RF); assay: Minimum inhibitory concentration (MIC), broth microdilution; type: cell-based; conditions: read-out: MIC E. faecalis
# Method: (§1) The term “minimum inhibitory concentration (MIC)” means the lowest concentration of an antimicrobial agent that will inhibit the visible growth of a microorganism after overnight incubation. MIC values against bacteria, for example, the Gram-positive Staphylococcus aureus and Enterococcus faecalis and the Gram-negative Escherichia coli and Pseudomonas aeruginosa were determined by standard methods.
# (§2) With nearly three-dozen amphiphiles varying in structure and cationic nature synthesized, minimum inhibitory concentration (MIC) values against the Gram-positive Staphylococcus aureus and Enterococcus faecalis and the Gram-negative Escherichia coli and Pseudomonas aeruginosa were determined by standard methods. […] The commercially available antibacterial agent benzalkonium chloride (benzyldimethyldodecylammonium chloride, Bn,12) was tested for comparison. The broth microdilution for determining MIC values was performed as previously reported.
# (§3) Different biological assays were performed. […] All cultures, with the exception of E. faecalis, were grown with shaking at 250 rpm.
# (§4) Minimum inhibitory concentration (MIC) values against bacteria were measured using standard method. Compounds were serially diluted two-fold from an aqueous stock solution to yield twelve test concentrations. Overnight S. aureus, E. faecalis, E. coli, P. aeruginosa, CA-MRSA, and HA-MRSA cultures diluted to ca. 10^6 cfu/mL in Mueller-Hinton media and 100 μL were inoculated into each well of a U-bottom 96-well plate (BD Biosciences, BD351177) containing 100 μL of compound solution. Plates were incubated statically at 37° C. for 72 hours upon which time wells were evaluated visually for bacterial growth. The MIC was determined as the lowest concentration of compound resulting in no bacterial growth visible to the naked eye, based on the majority of three independent experiments. Positive and negative aqueous and media controls were conducted for each trial.
# [2] = test system: Escherichia coli (MC4100); assay: as above; type: cell-based; conditions: read-out: MIC E. coli
# Method: as §1, §2, §3, §4
# [3] = test system: Pseudomonas aeruginosa (PAO1); assay: as above; type: cell-based; conditions: read-out: MIC P. aeruginosa
# Method: as §1, §2, §3, §4
# [4] = test system: Staphylococcus aureus MSSA (SH1000); assay: as above; type: cell-based
# Method: as §1, §2, §3, §4
# [5] = test system: CA-MRSA (USA300-0114); assay: as above; type: cell-based, Staphylococcus aureus
# Method: as §3, §4
# [6] = test system: HA-MRSA (ATCC 33591); assay: as above; type: cell-based, Staphylococcus aureus
# Method: as §3, §4
# [7] = test system: S. aureus (MSSA, SH1000) biofilms; assay: Minimum biofilm eradication concentration (MBEC), regrowth assay; type: cell-based, Staphylococcus aureus; conditions: for MBEC MSSA: Table 5, SH1000
# Excerpt: (§5) A regrowth assay was used to establish the MBEC of a compound to evaluate the antibiofilm activity. See also H. Ceri, M. Olson, D. Morck, D. Storey, R. Read, A. Buret, B. Olson, Methods Enzymol. 2001, 337, 377.
# (§6) Encouraged by the potency of the QACs against planktonic bacterial cells, the inventors then evaluated the efficacy of compound (12,2,12) against Staphylococcus aureus and Enterococcus faecalis biofilms. […] To both accurately evaluate the antibiofilm activity, a regrowth assay was utilized to establish the minimum biofilm eradication concentration (MBEC) of each compound.
# (§7) Different biological assays were performed. For all biological assays, laboratory strains of methicillin-susceptible Staphylococcus aureus MSSA (SH1000), Enterococcus faecalis (OG1RF), Escherichia coli (MC4100), Pseudomonas aeruginosa (PAO1), community-acquired methicillin-resistant Staphylococcus aureus CA-MRSA (USA300-0114), and hospital-acquired methicillin-resistant Staphylococcus aureus HA-MRSA (ATCC 33591) were grown at 37° C. overnight from freezer stocks in 10 mL of the media indicated for each assay. All cultures, with the exception of E. faecalis, were grown with shaking at 250 rpm.
# (§8) Minimum biofilm eradication concentration (MBEC) was also measured. To each well of a flat-bottomed 96-well plate (Corning 3370), 8 μL of overnight bacterial culture was brought to a volume of 200 μL with fresh media (BHI for S. aureus and MRSA, Todd Hewitt (TH) for E. faecalis). Plates were incubated statically for 24 hours at 37° C. to establish biofilms. After 24 hours, the wells were carefully emptied by inverting the plate and gently shaking. A pre-mixed solution of media and aqueous compound stock solution was added to each well and plates were incubated at 37° C. 16 hours after pre-established biofilms were treated with compound, the media from each well was removed, biofilms were washed three times with 200 μL PBS to remove planktonic cells, and biofilms were incubated overnight at 37° C. in 200 μL of fresh media to allow any viable cells to continue growing. The wells were then vigorously pipetted to resuspend the biofilm cells and the OD at 595 nm was measured using a plate reader (POLARstar Omega, BMG Labtech). Biofilms reaching a final OD of less than 0.1 were considered eradicated and the lowest concentration of antibiotic corresponded to the MBEC. Four replicates were completed for each concentration of compound as well as positive and negative controls.
# [8] = test system: E. faecalis biofilms; assay: as above; type: cell-based, Enterococcus faecalis
# Excerpt: as §5, §6, §7, §8
# [9] = test system: CA-MRSA (USA300-0114) biofilms; assay: as above; type: cell-based, Staphylococcus aureus; conditions: for MBEC CA-MRSA: Table 5, USA300-0114
# Method: as §5, §7, §8
# [10] = test system: red blood cells (defibrinated sheep blood); assay: Hemolysis assay (Lysis20); conditions: Table 4; concentration at which less than 20% of red blood cells are lysed
# Method: Hemolysis assays (Lysis20) were performed according to the procedure detailed in Peng, L., DeSousa, J., Su, Z., Novak, B. M., Nevzorov, A. A., Garland, E. R., and Melander, C., Inhibition of Acinetobacter baumannii biofilm formation on a methacrylate polymer containing a 2-aminoimidazole subunit, Chem. Comm. 2011, 47, 4896-4898. Defibrinated sheep blood was purchased from Hemostat Labs (DSB 100). Compounds representative of each class were serially diluted in sterile PBS from aqueous stock solutions and incubated with resuspended blood cells. The OD of the final suspensions were measured directly using plate reader. TritonX (1% by volume) served as a positive control (100% lysis marker) and sterile PBS served as a negative control (0% lysis marker).
# Lysis20 indicates the concentration of compound (in μM) at which less than 20% of red blood cells are lysed.
# [11] = Table 3, read-out: MIC S. aureus
# [12] = Table 4, SH1000, read-out: MIC MSSA
# [13] = Table 4, USA300-0114, read-out: MIC CA-MRSA
# [14] = Table 4, ATCC 33591, read-out: MIC HA-MRSA
# [15] = Table 1, read-out: MIC S. aureus
# [16] = Table 2, pre-established biofilm, ± values varied between 50 and 100 μM for the six trials
# [17] = table for compound (12,3,11-SH,3,12)
SMILES,MIC ([1]; Table 3),MIC ([2]; Table 3),MIC ([3]; Table 3),"MIC [4, 11]","MIC [4, 12]","MIC [5, 13]","MIC [6, 14]",MBEC MSSA [7],MBEC E. faecalis ([8]; Table 5),MBEC CA-MRSA [9],Lysis20 [10],also measured
"C=CC[N+](C)(CC[N+](C)(C)CCCCCCCCCCCC)CC[N+](C)(C)CCCCCCCCCCCC.[Br-].[Br-].[Br-] [12,2,3A,2,12]",2 µM,2 µM,4 µM,2 µM,2 µM,1 µM,1 µM,50 µM,75 ± 25 µM,100 µM,2 µM,
"CCCCCCCCCCCC[N+](C)(C)CC[N+](C)(C)CCCCCCCCCCCC [12,2,12]",,,,,1 µM,0.5 µM,0.5 µM,75 ± 25 µM,50 µM,200 µM,8 µM,"MIC ([1]; Table 1): 1 µM; MIC ([2]; Table 1): 2 µM; MIC ([3]; Table 1): 4 µM; MIC [4, 15]: 1 µM; MBEC S. aureus [7, 16]: 75 μM and 75 ± 25^a μM; MBEC E. faecalis [8, 16]: 75 μM and 75 ± 25^a μM"
"C=CC[N+](C)(CCC[N+](C)(C)CCCCCCCCCCCC)CCC[N+](C)(C)CCCCCCCCCCCC.[Br-].[Br-].[Br-] [12,3,3A,3,12]",2 µM,2 µM,4 µM,1 µM,1 µM,1 µM,1 µM,50 µM,75 ± 25 µM,100 µM,8 µM,
"CCCCCCCCCCCC[N+](C)(C)CCC[N+](C)(CCCC)CCC[N+](C)(C)CCCCCCCCCCCC.[Br-].[Br-].[Br-] [12,3,4,3,12]",1 µM,1 µM,2 µM,1 µM,1 µM,0.5 µM,0.5 µM,75 ± 25 µM,50 µM,75 ± 25 µM,8 µM,
"CCCCCCCCCCCC[N+](C)(C)CC[CH-][N+](C)(CCCCCCCCCCCS)CCC[N+](C)(C)CCCCCCCCCCCC (stereo not drawn) [12,3,11-SH,3,12]",,,,,,,,200 µM,>200 µM,>200 µM,16 µM,"MIC ([1]; Enterococcus faecalis, table for compound (12,3,11-SH,3,12)): 2 µM; MIC ([2]; Escherichia coli, table for compound (12,3,11-SH,3,12)): 2 µM; MIC ([3]; Pseudomonas aeruginosa, PAO1, table for compound (12,3,11-SH,3,12)): 8 µM; MIC ([4]; Staphylococcus aureus, MSSA, Table 4, SH1000, read-out: MIC MSSA): 2 µM; MIC ([4]; Staphylococcus aureus, MSSA, table for compound (12,3,11-SH,3,12), read-out: MIC S. aureus): 2 µM; MIC ([5]; Staphylococcus aureus, Table 4, USA300-0114, read-out: MIC CA-MRSA): 2 µM; MIC ([5]; Staphylococcus aureus, table for compound (12,3,11-SH,3,12), read-out: MIC USA300-0114): 2 µM; MIC ([6]; Staphylococcus aureus, Table 4, ATCC 33591, read-out: MIC HA-MRSA): 2 µM; MIC ([6]; Staphylococcus aureus, table for compound (12,3,11-SH,3,12), read-out: MIC ATCC 33591): 2 µM; MBEC S. aureus [7, 17]: 200 µM; MBEC E. faecalis [8, 17]: >200 µM; MBEC USA300-0114 [9, 17]: >200 µM"
"CCCCCCCCCCCC[N+](C)(C)CCC[N+](C)(CCCCCCCCCCCC)CCC[N+](C)(C)CCCCCCCCCCCC.[Br-].[Br-].[Br-] [12,3,12,3,12]",1 µM,1 µM,4 µM,0.5 µM,0.5 µM,1 µM,1 µM,100 µM,200 µM,>200 µM,4 µM,
"CCCCCCCCCCCC[N+](C)(C)CCC[N+](C)(CCC[N+](C)(C)CCCCCCCCCCCC)Cc1ccccc1.[Br-].[Br-].[Br-] [12,3,Bn,3,12]",1 µM,1 µM,2 µM,1 µM,2 µM,1 µM,1 µM,100 µM,100 µM,200 µM,8 µM,
"CCCCCCCCCCCC[N+](C)(C)CCC[N+](C)(CCC[N+](C)(C)CCCCCCCCCCCC)Cc1ccc(CCCCCCCC)cc1.[Br-].[Br-].[Br-] [12,3,Bn-8,3,12]",1 µM,1 µM,4 µM,1 µM,2 µM,2 µM,1 µM,200 µM,200 µM,>200 µM,8 µM,
"CCCCCCCCCCCC[N+](C)(C)CCCCC[N+](C)(C)CCCCCCCCCCCC.[Br-].[Br-] [12,5,12]",1 µM,1 µM,2 µM,2 µM,2 µM,1 µM,0.5 µM,50 µM,100 µM,100 µM,8 µM,"MIC ([1]; Table 1): 1 µM; MIC ([2]; Table 1): 1 µM; MIC ([3]; Table 1): 4 µM; MIC [4, 15]: 1 µM; MBEC S. aureus [7, 16]: 75 ± 25^a μM; MBEC E. faecalis [8, 16]: 75 ± 25^a μM"
"CCCCCCCCCCCCCCCC[N+](C)(C)CCCCC[N+](C)(C)CCCCCCCCCCCCCCCC.[Br-].[Br-] [16,5,16]",2 µM,16 µM,32 µM,2 µM,2 µM,8 µM,1 µM,200 µM,≥200 µM,>200 µM,4 µM,
